Experimental data as given in publication PMC9246196, “Novel pyrrolopyrimidine derivatives: design, synthesis, molecular docking, molecular simulations and biological evaluations as antioxidant and anti-inflammatory agents” (Journal of Enzyme Inhibition and Medicinal Chemistry, 2022).
≈ marks a conversion by molar mass, not a printed value. Blank lines part the entries; values can stand above or below the molecule they belong to.

Assays:
[1] = DPPH radical scavenging assay; type: biochemical
Experimental: DPPH scavenging potential of samples was determined with a slightly modified method[47]^,[48]. Each sample was prepared at 500 ppm. Serial concentrations of samples were prepared (200 µL, 400 µL and 800 µL). Methanol was added to complete the total volume to 1 mL and all the samples were vortexed well. 1 mL of 0.1 mM DPPH methanolic solution was added to each diluted sample. All the samples were vortexed again, then left to stand for 30 min in the dark at environment temperature. The absorption of the developed colour appeared against the blank reagent was measured at 517 nm using a spectrophotometer. BHT was used as a standard antioxidant. The capability to scavenge DPPH radical was estimated using the following equation: DPPH scavenging ability (% inhibition)=[(A0−A*)/A0]×100
A0 is Control absorption and A* is sample absorption.

RAW 264.7 cells = experiment: MTT cytotoxicity against RAW 264.7 macrophage cells; type: cell-based; settings: RAW 264.7, MTT
Experimental: The macrophage cell line, RAW 264.7 was obtained from the ATCC (American type culture collection). The cells were cultured in RPMI 1640 medium (Roswell Park Memorial Institute) and supplemented with 1% pen/strep and 10% heat-inactivated foetal bovine serum. The cells were incubated, in a humidified incubator, in an atmosphere of 5% CO2 at 37 °C and were subculture twice before the experiment.
(§1) RAW 264.7 cells were suspended in a RPMI medium. After 24 h of seeding 1 × 10^5 cells per well (in 96 well plates) and incubated for 24 h for the experiments. The cells were then treated with the samples at concentrations of 100, 50, 25 and 12.5 μg/mL and incubated for 1 h. They were then stimulated with 10 μg/mL of LPS for another 24 h. The supernatant was gently transferred to new 96-well plates and used for NO determination, while the cells that remained in the old plate were used for the MTT assay of cell viability. Samples (stock) were dissolved in DMSO, and the working samples were prepared in the media. Cell viability was assessed by the mitochondrial dependent reduction of yellow MTT (3–(4,5-dimethylthiazol-2-yl)-2,5-diphenyltetrazolium bromide) to purple formazan.
The percentage of change in viability was calculated according to the formula: [(Reading of extract /Reading of negative control )−1]×100.

[2] = test system: LPS-stimulated NO production by RAW 264.7 macrophages; experiment: Nitric oxide assay (Griess) in LPS-induced RAW 264.7 macrophages; type: cell-based; settings: Mus musculus; for IC50: RAW264.7, LPS-induced RAW 264.7, read-out: NO inhibition IC50; for inhibition at 12.5 µg/mL / inhibition at 25 µg/mL / inhibition at 50 µg/mL / inhibition at 100 µg/mL: RAW264.7, LPS 10 µg/mL, read-out: NO % inhibition (mean ± SEM)
Experimental: as §1
Nitric oxide production was assayed by measuring nitrite in the supernatants of cultured LPS-RAW 264.7 cells. The assay was carried out as described previously with slight modification[48]^,[50]. After pre-incubation of RAW 264.7 cells (1 × 10^5 cells/mL) with LPS (10 µg/mL) for 24 h, the amount of nitrite, a stable metabolite of NO used as an indicator of NO production in the culture medium was measured using the Griess reagent (1% sulphanilamide and 0.1% naphthyl ethylenediamine dihydrochloride in 2.5% phosphoric acid). A volume of 50 µL of the cell culture medium was mixed with 50 µL of the Griess reagent. Subsequently, the mixture was incubated at room temperature for 15 min and the absorbance was measured at 540 nm by a microplate reader. Fresh culture medium was used as a blank in every experiment. The quantity of nitrite was determined from a sodium nitrite standard curve as expressed in the equation. Nitric oxide inhibition (%)=(optical denisty of control−optical denisty of test /optical denisty of control ) ×100.

melting point: 176 to 178 °C
DPPH radical-scavenging IC50 [1]: 160.05 µg/mL
IC50 [2]: 57.3 µg/mL (≈ 166 µM)
SMILES: Clc1cccc(-n2cc(-c3ccccc3)c3c2ncn2cnnc32)c1 [3a, 7–(3-Chlorophenyl)-9-phenyl-7H-pyrrolo[3,2-e][1,2,4]triazolo[4,3-c] pyrimidine]
DPPH % Inhibition (mean ± SEM) ([1]; conc. 100 (µg/mL)): 39.56 ± 0.88%
DPPH % Inhibition (mean ± SEM) ([1]; conc. 200 (µg/mL)): 58.09 ± 1.50%
DPPH % Inhibition (mean ± SEM) ([1]; conc. 400 (µg/mL)): 62.51 ± 0.32%
Cytotoxicity of raw cells% (mean ± SEM) (RAW 264.7 cells; 12.5 µg/mL): 0%
Cytotoxicity of raw cells% (mean ± SEM) (RAW 264.7 cells; 25 µg/mL): 76.5 ± 1.9%
Cytotoxicity of raw cells% (mean ± SEM) (RAW 264.7 cells; 50 µg/mL): 78.7 ± 2.2%
Cytotoxicity of raw cells% (mean ± SEM) (RAW 264.7 cells; 100 µg/mL): 92.0 ± 1.6%
inhibition at 12.5 µg/mL [2]: 40.6 ± 2.6%
inhibition at 25 µg/mL [2]: 53.1 ± 1.3%
inhibition at 50 µg/mL [2]: 62.5 ± 1.2%
inhibition at 100 µg/mL [2]: 65.6 ± 1.2%

melting point: 201 to 203 °C
SMILES: Cc1nnc2c3c(-c4ccccc4)cn(-c4ccc(Cl)cc4)c3ncn12 [5b, 7–(4-Chlorophenyl)-3-methyl-9-phenyl-7H-pyrrolo[3,2-e][1,2,4]triazolo[4,3-c] pyrimidine]

melting point: 199 to 201 °C
SMILES: Cc1cc(C)n(-c2ncnc3c2c(-c2ccccc2)cn3-c2ccc(Cl)cc2)n1 [7b, 7–(4-Chlorophenyl)-4–(3,5-dimethyl-pyrazol-1-yl)-5-phenyl-pyrrolo[2,3-d]pyrimidine]

melting point: 187 to 189 °C
SMILES: Clc1ccc(/C=N/Nc2ncnc3c2c(-c2ccccc2)cn3-c2ccc(Cl)cc2)cc1 [8d, 7–(4-Chlorophenyl)-N-[(E)-(4-chlorophenyl)methyleneamino]-5-phenyl-pyrrolo[2,3-d]pyrimidin-4-amine]

melting point: 167 to 169 °C
DPPH radical-scavenging IC50 [1]: 122.07 µg/mL
IC50 [2]: ~53 µg/mL (≈ 117 µM)
SMILES: COc1ccc(/C=N/Nc2ncnc3c2c(-c2ccccc2)cn3-c2cccc(Cl)c2)cc1 [8e, 7–(3-Chlorophenyl)-N-[(E)-(4-methoxyphenyl)methyleneamino]-5-phenyl-pyrrolo[2,3-d]pyrimidin-4-amine]
DPPH % Inhibition (mean ± SEM) ([1]; conc. 100 (µg/mL)): 40.63 ± 2.13%
DPPH % Inhibition (mean ± SEM) ([1]; conc. 200 (µg/mL)): 82.15 ± 0.14%
DPPH % Inhibition (mean ± SEM) ([1]; conc. 400 (µg/mL)): 85.22 ± 0.17%
Cytotoxicity of raw cells% (mean ± SEM) (RAW 264.7 cells; 12.5 µg/mL): 0%
Cytotoxicity of raw cells% (mean ± SEM) (RAW 264.7 cells; 25 µg/mL): 65 ± 3.1%
Cytotoxicity of raw cells% (mean ± SEM) (RAW 264.7 cells; 50 µg/mL): 73.1 ± 1.3%
Cytotoxicity of raw cells% (mean ± SEM) (RAW 264.7 cells; 100 µg/mL): 77.7 ± 1.5%
inhibition at 12.5 µg/mL [2]: 38.7 ± 1.7%
inhibition at 25 µg/mL [2]: 66.5 ± 3.7%
inhibition at 50 µg/mL [2]: 67.5 ± 1.8%
inhibition at 100 µg/mL [2]: 71.8 ± 1%

melting point: 194 to 196 °C
SMILES: COc1ccc(/C=N/Nc2ncnc3c2c(-c2ccccc2)cn3-c2ccc(Cl)cc2)cc1 [8f, 7–(4-Chlorophenyl)-N-[(E)-(4-methoxyphenyl)methyleneamino]-5-phenyl-pyrrolo[2,3-d]pyrimidin-4-amine]

The remaining lines, values behind:

SMILES: NNc1ncnc2c1c(-c1ccccc1)cn2-c1cccc(Cl)c1 [2a, (7–(3-Chlorophenyl)-5-phenyl-7H-pyrrolo[2,3-d]pyrimidin-4-yl)-hydrazine]
melting point: 204 to 206 °C

SMILES: NNc1ncnc2c1c(-c1ccccc1)cn2-c1ccc(Cl)cc1 [2b, (7–(4-Chlorophenyl)-5-phenyl-7H-pyrrolo[2,3-d]pyrimidin-4-yl)-hydrazine]
melting point: 217 to 219 °C

SMILES: Clc1ccc(-n2cc(-c3ccccc3)c3c2ncn2cnnc32)cc1 [3b, 7–(4-Chlorophenyl)-9-phenyl-7H-pyrrolo[3,2-e][1,2,4]triazolo[4,3-c] pyrimidine]
melting point: 190 to 192 °C

SMILES: S=c1[nH]nc2c3c(-c4ccccc4)cn(-c4ccc(Cl)cc4)c3ncn12 [4b, 7–(4-Chlorophenyl)-9-phenyl-7H-pyrrolo[3,2-e][1,2,4]triazolo[4,3-c]pyramid in-3-thione]
melting point: 187 to 189 °C
DPPH radical-scavenging IC50 [1]: 129.38 µg/mL
DPPH % Inhibition (mean ± SEM) ([1]; conc. 100 (µg/mL)): 37.97 ± 0.71%
DPPH % Inhibition (mean ± SEM) ([1]; conc. 200 (µg/mL)): 77.76 ± 1.60%
DPPH % Inhibition (mean ± SEM) ([1]; conc. 400 (µg/mL)): 79.55 ± 1.06%
Cytotoxicity of raw cells% (mean ± SEM) (RAW 264.7 cells; 12.5 µg/mL): 0%
Cytotoxicity of raw cells% (mean ± SEM) (RAW 264.7 cells; 25 µg/mL): 69.6 ± 1.3%
Cytotoxicity of raw cells% (mean ± SEM) (RAW 264.7 cells; 50 µg/mL): 75.2 ± 2.5%
Cytotoxicity of raw cells% (mean ± SEM) (RAW 264.7 cells; 100 µg/mL): 85.4 ± 0.6%
IC50 [2]: 64.8 µg/mL (≈ 171 µM)
inhibition at 12.5 µg/mL [2]: 39.8 ± 1.9%
inhibition at 25 µg/mL [2]: 52.8 ± 1.1%
inhibition at 50 µg/mL [2]: 54.3 ± 1.6%
inhibition at 100 µg/mL [2]: 58.1 ± 3.5%

SMILES: Cc1nnc2c3c(-c4ccccc4)cn(-c4cccc(Cl)c4)c3ncn12 [5a, 7–(3-Chlorophenyl)-3-methyl-9-phenyl-7H-pyrrolo[3,2-e][1,2,4]triazolo[4,3-c] pyrimidine]
melting point: 227 to 229 °C

SMILES: O=c1[nH]nc2c3c(-c4ccccc4)cn(-c4cccc(Cl)c4)c3ncn12 [6a, 7–(3-Chlorophenyl)-9-phenyl-7H-pyrrolo[3,2-e][1,2,4]triazolo[4,3-c]pyrimidin-3-one]
melting point: 226 to 228 °C

SMILES: O=c1[nH]nc2c3c(-c4ccccc4)cn(-c4ccc(Cl)cc4)c3ncn12 [6b, 7–(4-Chlorophenyl)-9-phenyl-7H-pyrrolo[3,2-e][1,2,4]triazolo[4,3-c]pyrimidin-3-one]
melting point: 233 to 235 °C

SMILES: Cc1cc(C)n(-c2ncnc3c2c(-c2ccccc2)cn3-c2cccc(Cl)c2)n1 [7a, 7–(3-Chlorophenyl)-4–(3,5-dimethyl-pyrazol-1-yl)-5-phenyl-pyrrolo[2,3-d]pyrimidine]
melting point: 180 to 182 °C

SMILES: Clc1cccc(-n2cc(-c3ccccc3)c3c(N/N=C/c4ccccc4)ncnc32)c1 [8a, N-[(E)-benzylideneamino]-7–(3-chlorophenyl)-5-phenyl-pyrrolo[2,3-d]pyrimidin-4-amine]
melting point: 187 to 189 °C

SMILES: Clc1ccc(-n2cc(-c3ccccc3)c3c(N/N=C/c4ccccc4)ncnc32)cc1 [8b, N-[(E)-benzylideneamino]-7–(4-chlorophenyl)-5-phenyl-pyrrolo[2,3-d]pyrimidin-4-amine]
melting point: 172 to 174 °C

SMILES: Clc1ccc(/C=N/Nc2ncnc3c2c(-c2ccccc2)cn3-c2cccc(Cl)c2)cc1 [8c, 7–(3-Chlorophenyl)-N-[(E)-(4-chlorophenyl)methyleneamino]-5-phenyl-pyrrolo[2,3-d]pyrimidin-4-amine]
melting point: 247 to 249 °C

SMILES: Cc1cc(C(C)(C)C)c(O)c(C(C)(C)C)c1 [BHT, butylated hydroxytoluene, reference compound]
DPPH radical-scavenging IC50 [1]: 128.77 µg/mL
DPPH % Inhibition (mean ± SEM) ([1]; conc. 100 (µg/mL)): 40.03 ± 0.39%
DPPH % Inhibition (mean ± SEM) ([1]; conc. 200 (µg/mL)): 76.81 ± 0.21%
DPPH % Inhibition (mean ± SEM) ([1]; conc. 400 (µg/mL)): 90.07 ± 0.26%
